ChEMBL document CHEMBL1201862, “PubChem BioAssay data set” (2004)
Active and inactive are the calls of the source.

Legend:
[1] = viability of PTEN-deleted HCT116 cells – cell-based, HCT116 PTEN knockout, dose response (AID 1047); assay type: functional;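 further: HCT116 colon tumor cells with PTEN knocked out; cells exposed to compound for 60 hours before readout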
[2] = biological target: Photoreceptor-specific nuclear receptor (Homo sapiens, UniProt Q9Y5X4); assay type: functional, cell-based;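 further: CHO-S cells with Gal4-NCOR and VP16-NR2E3 two-hybrid luciferase reporter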
[3] = Vero E6 cell cytotoxicity, dose response, cytotoxicity control for non-replicating M. tuberculosis project, secondary assay (AID 492998); assay type: functional, VeroE6; details: Vero C1008
[4] = microbe, parasite or virus in culture; assay type: functional; details: Mycobacterium tuberculosis
Paired box protein Pax-8 = Paired box protein Pax-8 (Homo sapiens, UniProt Q06710); experiment: PAX8 transcriptional activity inhibition in RMG-I – RMG-I cells, luciferase, cherry-pick, dose response (AID 687027); assay type: functional, cell-based;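 further: luciferase reporter driven by Pax8 target thyroperoxidase promoter measured by SteadyGlo luminescence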
[5] = viability of HCT116 lacking mutant beta-catenin – cell-based, human colon tumor, dose response (AID 1045); assay type: functional;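 further: HCT116 colon tumor cells with beta catenin knocked out; cells exposed to compound for 60 hours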
cells [6] = assay type: functional
[7] = Fluorescence-based cell-based high throughput dose response assay for inhibitors of the interaction of nucleotide-binding oligomerization domain containing 2 (NOD2) and the receptor-interacting serine-threonine kinase 2 (RIPK2).; assay type: functional; details: Homo sapiens
HeLa = experiment: Cytotoxicity counterscreen assay for transcriptional activators of heat shock protein 70 (Hsp70). [Related pubchem assays: 1203, 1252 ]; assay type: functional; details: Homo sapiens;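 further: cells exposed to compound for 16 hours before readout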
INS1 = experiment: INS-1E survival protection against cytokine death – cell-based, luminescence, retest, dose response (AID 449756); assay type: functional; details: Rattus norvegicus;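 further: cell death triggered by IL-1 beta plus TNF-alpha plus IFN-gamma mixture; protective hits raise ATP signal compared with cytokine alone wells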
Beta Lactamase = Beta Lactamase (Pseudomonas aeruginosa, UniProt Q932Y6); experiment: BLA reporter interference, concentration series – BLA reporter cells, FRET fluorescence, artefact control for TLR9-MyD88 binding inhibitor project, dose response (AID 588341); assay type: cell-based;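 further: cell based assay in CHO-K1 cells stably expressing beta-lactamase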
CHO = CHO cell viability loss, potency – luminescence, cytotoxicity control for TLR9-MyD88 binding inhibitor project, dose response (AID 588339); assay type: functional, cell-based, hamster; details: Cricetulus griseus;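 further: CHO cells stably coexpressing TLR9 and MyD88 fusions from primary screen; compound exposure lasted 48 hours before viability readout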
[8] = general cell-killing toxicity readout – plate reader, dry powder samples, cytotoxicity control for PAX8 inhibitor project, dose response (AID 743021); assay type: functional, cell-based
[9] = THP-1 cell cytotoxicity, dose response, cytotoxicity control for non-replicating M. tuberculosis project (AID 489025); assay type: functional
[10] = biological target: Long-chain-fatty-acid--AMP ligase FadD28 (Mycobacterium tuberculosis, UniProt P9WQ59); experiment: Fluorescence polarization aasay to screen for inhibitors that compete for the binding of FadD28 to a bisubstrate Measured in Biochemical System Using Plate Reader - 2147-01_Inhibitor_Dose_CherryPick_Activity.; assay type: functional, Mycobacterium tuberculosis H37Rv
cells [11] = experiment: cells
[12] = viability of uninfected HEp-2 cells – cell-based, HTS, cytotoxicity control for RSV inhibitor project, dose response (AID 2410); assay type: functional; details: human respiratory syncytial virus
[13] = antiviral protection against BTV-induced cell death – arbovirus, BSR cells, confirmation (AID 1250); assay type: functional;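 further: protection from viral cytopathic effect measured as cell viability by ATP luminescence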
Mucolipin-3 = Mucolipin-3 (Homo sapiens, UniProt Q8TDD5); experiment: Dose response cell-based high-throughput screening assay for agonists of the transient receptor potential channel ML3 (TRPML3). [Related pubchem assays: 1526, 1424, 1448 ]; assay type: functional
Ion channel NompC = Ion channel NompC (Danio rerio, UniProt Q7T1G6); experiment: Fluorescence counterscreen assay for TRPML3 agonists: dose response cell-based high-throughput screening assay to identify agonists of the transient receptor potential channel N1 (TRPN1). [Related pubchem assays: 1526, 1424, 1448 ]; assay type: functional
Aminopeptidase N = biological target: T1, Aminopeptidase N (Plasmodium falciparum FcB1/Columbia, UniProt O96935); experiment: malaria alanyl aminopeptidase activity blockers – biochemical, fluorogenic H-Leu-NHMec substrate, 1536-well (AID 1445); parameters: species or system Plasmodium falciparum 3D7, 3D7
T1 sequence (O96935 whole entry): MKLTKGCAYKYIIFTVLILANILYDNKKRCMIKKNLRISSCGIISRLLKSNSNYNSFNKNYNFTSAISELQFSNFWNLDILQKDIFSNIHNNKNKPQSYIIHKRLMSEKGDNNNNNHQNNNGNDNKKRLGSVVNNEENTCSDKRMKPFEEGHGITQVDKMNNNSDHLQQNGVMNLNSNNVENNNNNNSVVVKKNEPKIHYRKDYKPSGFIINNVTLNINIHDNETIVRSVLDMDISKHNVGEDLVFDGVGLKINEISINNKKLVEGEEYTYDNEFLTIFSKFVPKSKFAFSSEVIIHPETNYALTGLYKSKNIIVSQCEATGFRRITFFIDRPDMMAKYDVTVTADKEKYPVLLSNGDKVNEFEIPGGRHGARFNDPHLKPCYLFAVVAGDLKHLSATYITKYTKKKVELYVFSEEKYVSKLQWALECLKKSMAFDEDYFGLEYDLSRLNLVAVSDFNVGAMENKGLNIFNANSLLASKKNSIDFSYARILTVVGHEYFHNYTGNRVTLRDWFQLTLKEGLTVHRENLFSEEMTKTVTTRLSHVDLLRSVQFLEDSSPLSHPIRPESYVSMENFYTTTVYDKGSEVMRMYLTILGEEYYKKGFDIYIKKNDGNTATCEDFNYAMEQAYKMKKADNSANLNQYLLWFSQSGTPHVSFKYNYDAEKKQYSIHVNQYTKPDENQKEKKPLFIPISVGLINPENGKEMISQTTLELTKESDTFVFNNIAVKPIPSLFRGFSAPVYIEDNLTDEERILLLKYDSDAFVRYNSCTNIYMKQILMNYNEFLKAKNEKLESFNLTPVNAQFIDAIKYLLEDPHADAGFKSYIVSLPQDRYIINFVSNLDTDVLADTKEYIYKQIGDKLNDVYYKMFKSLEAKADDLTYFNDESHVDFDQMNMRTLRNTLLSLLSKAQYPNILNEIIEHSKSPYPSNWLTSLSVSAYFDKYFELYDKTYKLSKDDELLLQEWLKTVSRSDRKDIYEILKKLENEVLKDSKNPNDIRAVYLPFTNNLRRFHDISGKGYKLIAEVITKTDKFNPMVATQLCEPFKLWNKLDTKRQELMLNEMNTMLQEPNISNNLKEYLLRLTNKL

HEK293 = experiment: EBV LMP1 TES2 canonical NF-kB signalling blockers – cell-based, HEK293, luciferase, cherry-pick, dose response (AID 588343); assay type: functional; details: Homo sapiens
[14] = luciferase reporter signal reduction – luminescence, H4-C neuroglioblastoma cells, dose response (AID 2458); assay type: functional, cell-based;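 further: H4 neuroglioblastoma cells stably carrying a luciferase reporter gene fusion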
cells [15] = assay type: functional, cell-based
BJ [16] = experiment: BJ-TERT fibroblast viability loss – cell-based, RAS-independent, luminescence, dose response (AID 1933); assay type: functional; details: Homo sapiens
[17] = Luminescence Cell-Based Dose Response HTS to Identify Inhibitors of 5'UTR Stem-Loop Driven Prion Protein mRNA Translation in H4 Neuroglioblastoma Cells. [Related pubchem assays: 1827 (Project Summary), 1813 (Primary HTS)]; assay type: functional
BJ [18] = experiment: cells; assay type: functional, cell-based; details: Homo sapiens
[19] = luciferase reporter signal suppression in cells – H4 neuroglioma cells, luminescence, dose response (AID 1990); assay type: functional, cell-based
BJ [20] = experiment: BJ-TERT-LT-ST fibroblast viability loss – cell-based, RAS-independent, luminescence, dose response (AID 1935); assay type: functional; details: Homo sapiens;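 further: BJ fibroblasts immortalized with TERT plus LT and ST oncogenes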
BJ [21] = experiment: growth inhibition of engineered Ras-driven BJ cells – cell-based, alamar blue fluorescence, cherrypicked samples, dose response (AID 2631); assay type: functional; details: Homo sapiens;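 further: confirmatory dose-response assay in RAS-dependent BJ fibroblasts engineered with TERT, LT and ST, with cytotoxicity read by fluorescence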
[22] = alpha-synuclein stem-loop translation blockers – luminescence, H4 neuroglioblastoma cells, dose confirmation, confirmation (AID 2454); assay type: functional, cell-based;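 further: H4 neuroglioblastoma cells carrying an alpha-synuclein 5'UTR luciferase reporter; potency for inhibition of the luciferase signal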
[23] = alpha-synuclein stem-loop luciferase translation blockers – H4 neuroglioma cells, luminescence, confirmation (AID 1988); assay type: functional, cell-based
[24] = Luminescence-based dose response cell-based high throughput screening assay for cytotoxic compounds using the IEC-6 intestinal epithelial cell line. [Related pubchem assays: 1858 (Summary AID.), 1825 (Counterscreen.), 1907 (Confirmation screen.)]; assay type: functional

Chain of Mucolipin-3 (Q8TDD5 whole entry): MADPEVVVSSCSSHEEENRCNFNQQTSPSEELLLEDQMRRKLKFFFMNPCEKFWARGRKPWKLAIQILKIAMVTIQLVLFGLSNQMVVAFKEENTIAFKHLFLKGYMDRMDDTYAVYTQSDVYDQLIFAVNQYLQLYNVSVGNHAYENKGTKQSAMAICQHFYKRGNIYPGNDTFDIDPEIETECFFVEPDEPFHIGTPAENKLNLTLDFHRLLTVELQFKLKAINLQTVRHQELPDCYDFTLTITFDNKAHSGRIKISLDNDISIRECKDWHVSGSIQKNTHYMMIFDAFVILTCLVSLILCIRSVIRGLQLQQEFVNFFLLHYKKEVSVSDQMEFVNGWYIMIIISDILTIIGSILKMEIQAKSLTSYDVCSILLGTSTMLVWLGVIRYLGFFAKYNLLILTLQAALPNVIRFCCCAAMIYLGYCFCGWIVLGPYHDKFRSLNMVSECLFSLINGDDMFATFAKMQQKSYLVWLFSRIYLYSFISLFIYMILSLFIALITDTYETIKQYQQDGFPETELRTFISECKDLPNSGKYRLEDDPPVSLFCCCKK
Chain of Beta Lactamase (Q932Y6 whole entry, the tested form may be a part): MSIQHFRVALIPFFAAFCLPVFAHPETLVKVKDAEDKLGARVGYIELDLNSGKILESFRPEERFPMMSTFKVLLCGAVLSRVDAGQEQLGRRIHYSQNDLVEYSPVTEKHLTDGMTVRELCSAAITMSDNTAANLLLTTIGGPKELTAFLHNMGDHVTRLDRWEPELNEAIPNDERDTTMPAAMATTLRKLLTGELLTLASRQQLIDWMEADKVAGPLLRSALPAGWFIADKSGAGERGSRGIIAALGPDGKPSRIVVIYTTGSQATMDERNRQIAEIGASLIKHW
Chain of Photoreceptor-specific nuclear receptor (Q9Y5X4 whole entry, the tested form may be a part): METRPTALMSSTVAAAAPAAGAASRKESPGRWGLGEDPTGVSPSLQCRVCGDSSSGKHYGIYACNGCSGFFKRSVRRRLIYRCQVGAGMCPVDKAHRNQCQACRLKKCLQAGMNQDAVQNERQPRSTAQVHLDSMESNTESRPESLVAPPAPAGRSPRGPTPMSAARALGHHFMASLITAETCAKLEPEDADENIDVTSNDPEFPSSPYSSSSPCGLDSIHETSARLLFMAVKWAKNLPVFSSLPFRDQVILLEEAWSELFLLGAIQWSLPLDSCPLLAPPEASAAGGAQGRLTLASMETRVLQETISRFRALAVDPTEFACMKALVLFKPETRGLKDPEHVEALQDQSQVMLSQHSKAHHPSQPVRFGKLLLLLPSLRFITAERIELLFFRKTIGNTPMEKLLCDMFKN
Chain of Paired box protein Pax-8 (Q06710 whole entry): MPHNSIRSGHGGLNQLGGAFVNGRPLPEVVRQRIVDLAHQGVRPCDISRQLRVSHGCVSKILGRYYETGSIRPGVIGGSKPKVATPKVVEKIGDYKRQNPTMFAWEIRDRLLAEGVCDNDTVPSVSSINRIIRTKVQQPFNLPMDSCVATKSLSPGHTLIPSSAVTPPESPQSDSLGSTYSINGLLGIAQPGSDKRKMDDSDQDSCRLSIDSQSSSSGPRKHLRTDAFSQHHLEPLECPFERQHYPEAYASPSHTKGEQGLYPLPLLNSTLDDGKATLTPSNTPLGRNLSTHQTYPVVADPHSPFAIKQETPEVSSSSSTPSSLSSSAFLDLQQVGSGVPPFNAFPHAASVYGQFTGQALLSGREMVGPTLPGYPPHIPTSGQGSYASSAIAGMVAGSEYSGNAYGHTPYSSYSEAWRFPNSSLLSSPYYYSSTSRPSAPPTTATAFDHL
Chain of Ion channel NompC (Q7T1G6 whole entry): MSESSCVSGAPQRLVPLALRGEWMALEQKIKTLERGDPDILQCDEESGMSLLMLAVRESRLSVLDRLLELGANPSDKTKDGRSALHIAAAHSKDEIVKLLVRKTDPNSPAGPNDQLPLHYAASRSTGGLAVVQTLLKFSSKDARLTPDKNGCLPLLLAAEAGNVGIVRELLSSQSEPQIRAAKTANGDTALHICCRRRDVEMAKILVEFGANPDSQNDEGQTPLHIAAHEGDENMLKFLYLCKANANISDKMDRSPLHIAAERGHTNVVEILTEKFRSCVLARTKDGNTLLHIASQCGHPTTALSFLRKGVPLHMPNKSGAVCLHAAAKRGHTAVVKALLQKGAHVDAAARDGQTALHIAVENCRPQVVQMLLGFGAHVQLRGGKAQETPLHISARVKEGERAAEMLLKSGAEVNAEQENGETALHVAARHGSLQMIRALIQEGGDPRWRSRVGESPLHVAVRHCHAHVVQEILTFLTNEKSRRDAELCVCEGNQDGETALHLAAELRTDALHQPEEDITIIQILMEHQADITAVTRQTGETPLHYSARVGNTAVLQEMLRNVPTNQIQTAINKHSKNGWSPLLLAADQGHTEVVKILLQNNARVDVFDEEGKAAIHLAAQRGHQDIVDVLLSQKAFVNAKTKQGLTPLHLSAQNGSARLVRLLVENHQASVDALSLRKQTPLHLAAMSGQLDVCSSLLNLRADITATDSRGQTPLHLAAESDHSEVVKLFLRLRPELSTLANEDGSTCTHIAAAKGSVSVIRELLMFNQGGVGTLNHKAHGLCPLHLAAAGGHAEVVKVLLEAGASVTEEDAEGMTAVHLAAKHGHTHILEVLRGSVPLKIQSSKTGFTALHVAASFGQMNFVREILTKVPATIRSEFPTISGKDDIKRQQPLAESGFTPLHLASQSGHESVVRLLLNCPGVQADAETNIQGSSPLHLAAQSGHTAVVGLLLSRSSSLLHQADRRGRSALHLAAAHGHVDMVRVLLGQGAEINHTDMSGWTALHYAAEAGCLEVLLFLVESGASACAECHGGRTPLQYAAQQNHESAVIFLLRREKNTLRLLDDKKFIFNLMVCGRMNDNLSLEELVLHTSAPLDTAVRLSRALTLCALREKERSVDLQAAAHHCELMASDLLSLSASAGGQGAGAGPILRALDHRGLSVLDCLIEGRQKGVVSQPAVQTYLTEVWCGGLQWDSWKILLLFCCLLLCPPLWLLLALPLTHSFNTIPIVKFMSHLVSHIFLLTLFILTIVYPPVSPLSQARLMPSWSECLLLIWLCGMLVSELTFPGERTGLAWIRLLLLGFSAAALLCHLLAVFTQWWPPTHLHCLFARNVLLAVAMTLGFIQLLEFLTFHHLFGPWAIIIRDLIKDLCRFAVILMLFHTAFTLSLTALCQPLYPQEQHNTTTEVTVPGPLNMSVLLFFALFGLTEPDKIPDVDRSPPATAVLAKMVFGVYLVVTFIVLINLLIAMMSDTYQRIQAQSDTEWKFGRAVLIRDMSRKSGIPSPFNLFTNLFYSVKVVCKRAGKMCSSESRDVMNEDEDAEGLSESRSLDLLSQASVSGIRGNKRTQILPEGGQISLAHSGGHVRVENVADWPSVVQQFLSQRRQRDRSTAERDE
Chain of Long-chain-fatty-acid--AMP ligase FadD28 (P9WQ59 whole entry): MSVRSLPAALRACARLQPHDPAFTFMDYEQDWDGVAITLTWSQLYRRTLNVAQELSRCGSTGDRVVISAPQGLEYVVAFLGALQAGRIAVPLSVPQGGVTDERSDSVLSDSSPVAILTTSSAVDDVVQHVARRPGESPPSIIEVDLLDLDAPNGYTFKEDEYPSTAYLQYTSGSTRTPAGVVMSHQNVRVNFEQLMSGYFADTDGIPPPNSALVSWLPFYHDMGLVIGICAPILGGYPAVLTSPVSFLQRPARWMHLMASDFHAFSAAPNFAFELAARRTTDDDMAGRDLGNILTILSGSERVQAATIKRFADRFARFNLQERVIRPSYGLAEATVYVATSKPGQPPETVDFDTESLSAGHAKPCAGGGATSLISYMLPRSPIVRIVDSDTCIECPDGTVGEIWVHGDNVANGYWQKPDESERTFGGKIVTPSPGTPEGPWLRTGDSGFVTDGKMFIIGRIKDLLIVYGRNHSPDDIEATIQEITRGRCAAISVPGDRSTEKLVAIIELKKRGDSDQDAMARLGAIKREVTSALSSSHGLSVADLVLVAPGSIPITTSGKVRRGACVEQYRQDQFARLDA

COc1cc(OC)nc(-n2ncc(Br)c(Br)c2=O)n1
inactive: IC50 (Beta Lactamase) > 49.7 µM
active: EC50 [1] < 0.059 µM | IC50 [2] 2.69 µM | CC50 [3] 1.36 µM | CC50 [4] 1.98 µM | AC50 (Paired box protein Pax-8) 2.66 µM | EC50 [5] < 0.059 µM | IC50 (cells [6]) 6.73 µM | IC50 [7] 1.18 µM | AC50 (INS1) 6.03 µM | IC50 (CHO) 0.546 µM | AC50 [8] 20.6 µM | CC50 [9] 0.402 µM
> 1.22 µM (not active): CC50 (HeLa)

CCC1=NN2C(=N)/C(=C\c3cccn3-c3c(C)cccc3C)C(=O)N=C2S1
active: IC50 (cells [11]) 20.7 µM | CC50 [12] 19.5 µM | IC50 [13] 38.4 µM
inactive: AC50 [10] > 100 µM

COC(=O)c1cc(-c2ccc(S(=O)(=O)N3CCCCC3)cc2)c(C(F)(F)F)s1
> 29.9 µM (not active): EC50 (Mucolipin-3) | EC50 (Ion channel NompC)

Cc1nc(N)nc(N)c1/C=C/C(C)(C)c1ccc(Cl)cc1
inactive: EC50 (BJ [21]) > 133 µM
inconclusive: EC50 (BJ [20]) > 150 µM
active: IC50 (Aminopeptidase N) 66.2 µM | AC50 (HEK293) 0.0458 µM | EC50 [14] 0.009 µM | EC50 (cells [15]) 0.012 µM | EC50 (BJ [16]) 15.9 µM | EC50 [17] < 0.1 µM | EC50 (BJ [18]) < 0.12 µM | EC50 [19] < 0.1 µM | EC50 [22] < 0.001 µM | EC50 [23] < 0.1 µM | IC50 [24] > 0.00202 µM
